We go through two molecules from patent US20190010535A1, “METHODS AND COMPOSITIONS FOR THE DIAGNOSIS AND FOR THE TREATMENT OF ADRENOLEUKODYSTROPHY” (FUNDACIÓ INSTITUT D'INVESTIGACIÓ BIOMÈDICA DE BELLVITGE …, priority 2015, published 2019).

Type in all cases: in vivo
The test system of test [1] is Abcd1−/Abcd2−/− mice. Put plainly: Treadmill test. The conditions noted are these: four months of treatment starting at 12 months of age, belt speed 30 cm/sec, slope 20°. As to the method: (§1) Treadmill apparatus consisted of a variable speed belt varying in terms of speed and slope. An electrified grid was located to the rear of the belt on which footshocks (0.2 mA) were administered whenever the mice fell off the belt. The treadmill apparatus (Panlab, Barcelona, Spain) consisted of a belt (50 cm long and 20 cm wide) varying in terms of speed (5 to 150 cm/s) and slope (0-25°) enclosed in a plexiglass chamber. The latency to falling off the belt (time of shocks in seconds) and the number of received shocks were measured. The mice were placed on the top of the already moving belt facing away from the electrified grid and in the direction opposite to the movement of the belt. Thus, to avoid the footshocks, the mice had to locomote forward.
The mice were evaluated in five trials in a single-day session. In the first trial, the belt speed was set at 20 cm/s and the inclination at 50. […] When the mice were subjected to consecutive trials at increasing speeds up to 20 cm/sec and a 20° slope, no differences were detected from one session to another between the WT and Abcd1^−/Abcd2^−/− mice. However, when the belt speed was increased up to 30 cm/sec and the slope was 20°, differences were detected between the Abcd1^−/Abcd2^−/− mice and the controls because this task requires greater coordination. […]

Test [2] concerns Abcd1−/Abcd2−/− mice. The test is described as follows: Horizontal bar cross test. The conditions noted are these: four months of treatment starting at 12 months of age. As to the method: The bar cross test was carried out using a wooden bar of 100 cm in length and 2 cm in width (diameter). This bar is just wide enough for mice to stand on with their hind feet hanging over the edge such that any slight lateral misstep will result in a slip. […] The mice were put on one end of the bar and expected to cross to the other end. To eliminate the novelty of the task as a source of slips, all animals were given four trials on the bar the day before and at the beginning of the testing session. In an experimental session, the number of hind limb lateral slips and falls from the bar was counted on four consecutive trials. If an animal fell, it was placed back on the bar at the point at which it fell and was allowed to complete the task. The bar was cleaned with ethanol after each animal.

In test [3] the test system is Abcd1−/Abcd2−/− mice. Put plainly: Locomotor testing overall (treadmill and bar cross), disease progression in X-ALD mice. The conditions noted are these: four months of treatment. The protocol: as §1, with “Thus, to avoid the footshocks, the mice had to locomote forward.” left out
The mice were evaluated in five trials in a single-day session. […] When the mice were subjected to consecutive trials at increasing speeds up to 20 cm/sec and a 20° slope, no differences were detected from one session to another between the WT and Abcd1^−/Abcd2^−/− mice. However, when the belt speed was increased up to 30 cm/sec and the slope was 20°, differences were detected between the Abcd1^−/Abcd2^−/− mice and the controls because this task requires greater coordination. […]
The bar cross test was carried out using a wooden bar of 100 cm in length and 2 cm in width (diameter). […] In an experimental session, the number of hind limb lateral slips and falls from the bar was counted on four consecutive trials. […]

Consider `CCc1cc(/C(C)=N/OCc2ccc(C3CCCCC3)c(C(F)(F)F)c2)ccc1CN1CC(C(=O)O)C1` [Siponimod], for which, in the test with Abcd1−/Abcd2−/− mice [1], the “ratio between the time of shocks and the number of shocks (locomotor deficit index)” value is “indistinguishable from the WT ratio”. Besides, in the test on Abcd1−/Abcd2−/− mice [2], the number of slips result is given as “normalized” and the “time necessary to cross the bar” value is “normalized”. Besides, in the test on Abcd1−/Abcd2−/− mice [3], the “progression of the disease in X-ALD mice” value was “arrested the progression of the disease”.
For `CCCCCCCCc1ccc(CCC(N)(CO)CO)cc1` [Fingolimod], the “ratio between the time of shocks and the number of shocks (locomotor deficit index)” value in the test with Abcd1−/Abcd2−/− mice [1] was “indistinguishable from the WT ratio”. Also, in the test on Abcd1−/Abcd2−/− mice [2], the number of slips entry was “normalized” and the “time necessary to cross the bar” value is recorded as “normalized”. For the same molecule, the “progression of the disease in X-ALD mice” value in the test on Abcd1−/Abcd2−/− mice [3] is “arrested the progression of the disease”.
